Results taken from patent publication US20250129095A1, “ANNULATED 2-AMINO-3-CYANO THIOPHENES AND DERIVATIVES FOR THE TREATMENT OF CANCER” (Boehringer Ingelheim Int'l GmbH Corp., priority 2021, published 2025).

Tests used:
[1] = target: T1, KRAS (G12D)::SOS1 (Homo sapiens, UniProt P01116, G12D); assay: KRAS::SOS1 AlphaScreen binding assay, KRAS G12D; details: read-out: KRASG12D IC50
T1 construct: KRAS (G12D) 1-169, N-terminal 6His-tag, C-terminal avi-tag; 6His-tag (N); purchased Xtal BioStructures, Inc. (KRAS); Viva Biotech Ltd (SOS1)
Description: This assay can be used to examine the potency with which compounds according to the invention binding to (mutated) KRAS inhibit the protein-protein interaction between SOS1 and (mutated) KRAS e.g., KRAS WT, KRAS G12C, KRAS G12D, KRAS G12V, KRAS G13D. […] Low IC50 values in this assay setting are indicative of strong inhibition of protein-protein interaction between SOS1 and KRAS:
These assays measure the inhibitory effect of compounds on KRAS mutant protein-protein interactions using the Alpha Screen technology by Perkin Elmer
The following (mutant) enzyme forms of KRAS and interacting proteins are used in these assays at the given concentrations: • KRAS (G12D) 1-169, N-terminal 6His-tag, C-terminal avi-tag (Xtal BioStructures, Inc.); final assay concentration 10 nM and SOS1 564-1049, N-terminal 229 GST-tag, TEV cleavage site (Viva Biotech Ltd); final assay concentration 5 nM; • KRAS (G12C) 1-169, N-terminal 6His-tag for purification, cleaved off, C-terminal avi-tag, biotinylated, mutations: C51S, C80L, C118S (in house); final assay concentration 7.5 nM and SOS1 564-1049, N-terminal 229 GST-tag, TEV cleavage site (Viva Biotech Ltd); final assay concentration 5 nM; • KRAS (G12V) 1-169, N-terminal 6His-tag for purification, cleaved off, C-terminal avi-tag, biotinylated, TEV cleavage site, mutation: C118S, GDP loaded (in house); final assay concentration 10 nM and SOS1 564-1049, N-terminal 229 GST-tag, TEV cleavage site (Viva Biotech Ltd); final assay concentration 10 nM; • KRAS (G13D) 1-169, N-terminal 6His-tag for purification, cleaved off, C-terminal avi-tag, biotinylated, TEV cleavage site, mutation: C118S, GDP loaded (in house); final assay concentration 10 nM and SOS1 564-1049, N-terminal 229 GST-tag, TEV cleavage site (Viva Biotech Ltd); final assay concentration 10 nM; • KRAS (WT) 1-169, N-terminal 6His-tag for purification, cleaved off, C-terminal avi-tag, biotinylated, TEV cleavage site, mutation: C118S, GDP loaded (in house); final assay concentration 10 nM and SOS1 564-1049, N-terminal 229 GST-tag, TEV cleavage site (Viva Biotech Ltd); final assay concentration 10 nM.
Test compounds dissolved in DMSO are dispensed onto assay plates (Proxiplate 384 PLUS, white, PerkinElmer; 6008289) using an Access Labcyte Workstation with the Labcyte Echo 55×. For the chosen highest assay concentration of 100 μM, 150 nL of compound solution are transferred from a 10 mM DMSO compound stock solution. A series of eleven fivefold dilutions per compound are transferred to the assay plate, compound dilutions are tested in duplicates. DMSO are added as backfill to a total volume of 150 nL.
The assays run on a fully automated robotic system in a darkened room below 100 Lux. To 150 nl of compound dilution 10 μl of a mix including KRAS mutant protein, SOS1 (final assay concentrations see above) and GDP nucleotide (Sigma G7127; final assay concentration 10 μM) in assay buffer (1×PBS, 0.1% BSA, 0.05% Tween 20) are added into columns 1-24.
After 30 minutes incubation time 5 μl of Alpha Screen bead mix in assay buffer are added into columns 1-23. Bead mix consists of AlphaLISA Glutathione Acceptor Beads (PerkinElmer, Cat No AL109) and AlphaScreen Streptavidin Donor Beads (PerkinElmer Cat No 6760002) in assay buffer at a final assay concentration of 10 μg/ml each.
Plates are kept at room temperature in a darkened incubator. After an additional 60 minutes incubation time the signal is measured in a PerkinElmer Envision HTS Multilabel Reader using the AlphaScreen specs from PerkinElmer.
Each plate contains up to 16 wells of a negative control depending on the dilution procedure (platewise or serial) (DMSO instead of test compound; with KRAS mutant::SOS1 GDP mix and bead mix; column 23) and 16wells of a positive control (DMSO instead of test compound; with KRAS mutant::SOS1 GDP mix w/o bead mix; column 24).
As internal control known inhibitors of KRAS mutant::SOS1 interaction can be measured on each compound plate. […]

[2] = test system: NCI-H2122 cells; assay: NCI-H2122 CTG proliferation assay (120 h) (NSCLC, G12C); format: cell-based; details: Homo sapiens
Procedure: The CTG assay is designed to measure quantitatively the proliferation of NCI-H2122 cells (ATCC CRL-5985), using the CellTiter Glow Assay Kit (Promega G7571). Cells are grown in RPMI medium (ATCC) supplemented with Fetal Calf Serum (Life Technologies, Gibco BRL, Cat. No. 10270-106). On “day 0” 200 NCI-H2122 cells are seeded in 60 μL RPMI ATCC+10% FCS+Penstrep in a black 384-well plate, flat and clear bottom (Greiner, PNr. 781091). Cells are then incubated in the plates at 37° C. in a CO2 incubator overnight. On day 1, compounds (10 mM stock in DMSO) are added with the ECHO acoustic liquid handler system (Beckman Coulter), including DMSO controls. Plates are incubated for 120 h, and cell viability is measured using CellTiter-Glo luminescent cell viability reagent (Promega product code G7570). Viability (stated as percent of control) is defined as relative luminescence units RLU of each well divided by the RLU of cells in DMSO controls. […] values are determined from viability measurements by non-linear regression using a four parameter model. • AsPC-1 CTG proliieradon assay (120 h) (pancreatic cancer, G12D)

[3] = test system: NCI-H358 cells; assay: NCI-H358 CTG proliferation assay (120 h) (NSCLC, G12C); format: cell-based; details: Homo sapiens
Procedure: Additional Proliferation Assays with Mutant Cancer Cell Lines • NCI-H358 CTG proliferation assay (120 h) (NSCLC, G12C)
NCI-H358 cells (ATCC No. CRL-5807) are dispensed into black 384-well plates, flat and clear bottom (Greiner, PNr. 781091) at a density of 200 cells per well in 60 μl RPMI-1640 ATCC-Formulation (Gibco #A10491)+10% FCS (fetal calf serum). […] For the TO time point measurement, untreated cells are analyzed at the time of compound addition. Plates are incubated for 120 h, and cell viability is measured using CellTiter-Glo luminescent cell viability reagent (Promega product code G7570). Viability (stated as percent of control) is defined as relative luminescence units RLU of each well divided by the RLU of cells in DMSO controls.

T1 sequence (P01116 1-169 isoform P01116-2 G12D): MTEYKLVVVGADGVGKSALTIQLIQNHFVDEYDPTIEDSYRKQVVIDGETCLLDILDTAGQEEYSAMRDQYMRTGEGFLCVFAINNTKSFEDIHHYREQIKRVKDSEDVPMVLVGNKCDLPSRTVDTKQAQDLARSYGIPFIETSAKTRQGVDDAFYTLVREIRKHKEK

Row | IC50 [1] | IC50 [2] | IC50 [3] | Compound
1 | 1 nM | 1340 nM | 1180 nM | C[C@H](Oc1cc(O[C@H]2CNC(C)(C)C2)nc(-c2noc3c2CCC[C@@]32CCCc3sc(N)c(C#N)c32)n1)[C@@H]1CCCN1C (single isomer, unassigned) [II-8]
2 | 1 nM | 997 nM |  | C[C@H](Oc1cc(Oc2cnccn2)nc(-c2noc3c2CCC[C@@]32CCCc3sc(N)c(C#N)c32)n1)[C@@H]1CCCN1C [II-7]
3 | 1 nM | 1250 nM | 69 nM | C[C@H](Oc1cc(O[C@@H]2CNC2(C)C)nc(-c2noc3c2CCC[C@@]32CCCc3sc(N)c(C#N)c32)n1)[C@@H]1CCCN1C [II-9]
4 | 2 nM | 2420 nM |  | C[C@H](Oc1cc(N(C)C)nc(-c2noc3c2CCC[C@@]32CCCc3sc(N)c(C#N)c32)n1)[C@@H]1CCCN1C [II-10]
5 | 1 nM | 2130 nM |  | C[C@H](Oc1cc(NCC2COC2)nc(-c2noc3c2CCC[C@@]32CCCc3sc(N)c(C#N)c32)n1)[C@@H]1CCCN1C [II-11]
6 | 6 nM | 1740 nM | 819 nM | C[C@H](Oc1cc(Nc2nccs2)nc(-c2noc3c2CCC[C@@]32CCCc3sc(N)c(C#N)c32)n1)[C@@H]1CCCN1C [II-12]
7 | 2 nM | 532 nM | 146 nM | C[C@H](Oc1cc(Nc2ncco2)nc(-c2noc3c2CCC[C@@]32CCCc3sc(N)c(C#N)c32)n1)[C@@H]1CCCN1C [II-13]
8 | 3 nM | 1420 nM | 558 nM | C[C@H](Oc1cc(Nc2cnccn2)nc(-c2noc3c2CCC[C@@]32CCCc3sc(N)c(C#N)c32)n1)[C@@H]1CCCN1C [II-14]
9 | 3 nM | 847 nM | 123 nM | C[C@H](Oc1cc(Nc2ccncn2)nc(-c2noc3c2CCC[C@@]32CCCc3sc(N)c(C#N)c32)n1)[C@@H]1CCCN1C [II-15]
10 | 3 nM |  | 440 nM | C[C@H](Oc1cc(Nc2ccccn2)nc(-c2noc3c2CCC[C@@]32CCCc3sc(N)c(C#N)c32)n1)[C@@H]1CCCN1C [II-16]
11 | 2 nM | 4700 nM |  | C[C@H](Oc1cc(N(C)CCN(C)C)nc(-c2noc3c2CCC[C@@]32CCCc3sc(N)c(C#N)c32)n1)[C@@H]1CCCN1C [II-20]
12 | 1 nM | 2200 nM |  | C[C@H](Oc1cc(OCC2(N(C)C)CC2)nc(-c2noc3c2CCC[C@@]32CCCc3sc(N)c(C#N)c32)n1)[C@@H]1CCCN1C [II-21]
13 | 1 nM | 1710 nM |  | C[C@H](Oc1cc(OCC2(N(C)C)COC2)nc(-c2noc3c2CCC[C@@]32CCCc3sc(N)c(C#N)c32)n1)[C@@H]1CCCN1C [II-22]
14 | 1 nM | 389 nM |  | COc1c(OCC2(N(C)C)COC2)nc(-c2noc3c2CCC[C@@]32CCCc3sc(N)c(C#N)c32)nc1O[C@@H](C)[C@@H]1CCCN1C [II-25]

Continued, molecule first:

Row | Compound | IC50 [1] | IC50 [2] | IC50 [3]
15 | C[C@H](Oc1cc(Oc2nccs2)nc(-c2onc3c2CCC[C@@]32CCCc3sc(N)c(C#N)c32)n1)[C@@H]1CCCN1C [Example I-1] | 2 nM | 1470 nM | 
16 | C[C@H](Oc1cc(Oc2cccnc2)nc(-c2onc3c2CCC[C@@]32CCCc3sc(N)c(C#N)c32)n1)[C@@H]1CCCN1C [Example I-2] | 1 nM | 740 nM | 
17 | C[C@H](Oc1cc(Oc2cncnc2)nc(-c2onc3c2CCC[C@@]32CCCc3sc(N)c(C#N)c32)n1)[C@@H]1CCCN1C [Example I-3] | 1 nM | 2280 nM | 
18 | C[C@H](Oc1cc(N[C@H]2CCOC2)nc(-c2onc3c2CCC[C@@]32CCCc3sc(N)c(C#N)c32)n1)[C@@H]1CCCN1C [Example I-4] | 4 nM | 2390 nM | 2280 nM
19 | COC[C@H](C)Nc1cc(O[C@@H](C)[C@@H]2CCCN2C)nc(-c2onc3c2CCC[C@@]32CCCc3sc(N)c(C#N)c32)n1 [Example I-5] | 12 nM |  | 
20 | C[C@H](Oc1cc(Nc2ccccn2)nc(-c2onc3c2CCC[C@@]32CCCc3sc(N)c(C#N)c32)n1)[C@@H]1CCCN1C [Example I-6] | 4 nM | 1120 nM | 1360 nM
21 | C[C@H](Oc1cc(Sc2ncccn2)nc(-c2onc3c2CCC[C@@]32CCCc3sc(N)c(C#N)c32)n1)[C@@H]1CCCN1C [Example I-7] | 6 nM | 3610 nM | 5620 nM
22 | C[C@H](Oc1cc(OCC2(N(C)C)COC2)nc(-c2onc3c2CCC[C@@]32CCCc3sc(N)c(C#N)c32)n1)[C@@H]1CCCN1C [Example I-8] | 2 nM | 1260 nM | 76 nM
23 | C[C@H](Oc1cc(Oc2cncnc2)nc(-c2noc3c2CCC[C@@]32CCCc3sc(N)c(C#N)c32)n1)[C@@H]1CCCN1C [II-1] | 1 nM | 715 nM | 178 nM
24 | C[C@H](Oc1cc(Oc2nccs2)nc(-c2noc3c2CCC[C@@]32CCCc3sc(N)c(C#N)c32)n1)[C@@H]1CCCN1C [II-2] | 2 nM | 77 nM | 115 nM
25 | C[C@H](Oc1cc(Oc2ccon2)nc(-c2noc3c2CCC[C@@]32CCCc3sc(N)c(C#N)c32)n1)[C@@H]1CCCN1C [II-3] | 2 nM | 275 nM | 275 nM
26 | C[C@H](Oc1cc(O[C@H]2CCOC2)nc(-c2noc3c2CCC[C@@]32CCCc3sc(N)c(C#N)c32)n1)[C@@H]1CCCN1C [II-4] | 2 nM | 817 nM | 193 nM
27 | COCCOc1cc(O[C@@H](C)[C@@H]2CCCN2C)nc(-c2noc3c2CCC[C@@]32CCCc3sc(N)c(C#N)c32)n1 [II-5] | 1 nM | 861 nM | 339 nM
28 | C[C@H](Oc1cc(OCCO)nc(-c2noc3c2CCC[C@@]32CCCc3sc(N)c(C#N)c32)n1)[C@@H]1CCCN1C [II-6] | 1 nM | 1650 nM | 165 nM
